Reference: ChEMBL document CHEMBL1126845, “N-(carboxymethyl)-N-[3,5-bis(decyloxy)-phenyl]glycine (Ro 23-9358): a potent inhibitor of secretory phospholipases A2 with antiinflammatory activity” (J Med Chem, 1993)

Experiments:
Assay type in all cases: functional
[1] = target: T1, Phospholipase A2, membrane associated (Homo sapiens, UniProt P14555); assay: Tested for inhibitory activity against human synovial fluid PLA2 (HSF-PLA2)
T1 sequence (P14555 whole entry): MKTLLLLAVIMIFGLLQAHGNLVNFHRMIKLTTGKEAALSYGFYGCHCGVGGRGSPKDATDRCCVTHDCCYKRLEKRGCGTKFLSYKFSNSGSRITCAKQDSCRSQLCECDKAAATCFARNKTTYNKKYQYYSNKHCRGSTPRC

Rattus norvegicus [2] = species on record: Rattus norvegicus; assay: Paw volume in rat during treatment period
[3] = Tested for inhibitory activity against purified recombinant human placental PLA2 (r-hpPLA2)
Rattus norvegicus [4] = assay: Paw swelling rats induced by Naja naja venom PLA2 when tested at 30 mg/kg ip; settings: route intraperitoneal

| Compound | IC50 [1] [nM] | Paw volume (Rattus norvegicus [2]) [mL] | IC50 [3] [nM] | inhibition in vivo at 30 mg/kg (Rattus norvegicus [4]) [%] |
| --- | --- | --- | --- | --- |
| CCCCCCCCCCOc1cc(OCCCCCCCCCC)cc(C(=O)O)c1 | 3000 |  |  |  |
| CCCCCCCCCCOc1cc(OCCCCCCCCCC)cc(N(CC(=O)O)CC(=O)O)c1 | 230 | 1 | 87 | 41 |
